{"source": "paper PMC3199744", "about": "“Preformulation and stability in biological fluids of the retrocyclin RC-101, a potential anti-HIV topical microbicide” (AIDS Research and Therapy, 2011)", "key": {"[1]": {"experiment": "Stability in fresh normal human vaginal fluid (HVF), detection by LC-MS/MS", "conditions": "for time RC-101 detected in HVF: LC-MS/MS; for detection of RC-101 by LC-MS/MS: nanoLC-SRM MS, qualitative", "description": "Inclusion criteria included ages between 18 and 45 years and agreeing to be abstinent from sexual activity for 48 hours prior to fluid collection. […] After signing informed consent and confirming eligibility, subjects completed a questionnaire and were then instructed on the use of the Instead Softcup® (Instead Inc., La Jolla, CA). Instead Softcup® is a FDA approved device to hold menstrual fluid during the menstrual period in replacement of a tampon or pad. Subjects inserted the cup and waited for 30 min. After this time period, the physician removed the cup, and placed it into a 50 mL conical centrifuge tube. Vaginal fluid collected from healthy volunteer women was stored at 4°C until used, and it was used within 4 h after collection.\nThe polymeric film solution was prepared as previously described by adding Milli Q water, PVA, and hydroxypropyl methyl cellulose (HPMC). The solution was then heated at 95°C for 20 minutes for complete dissolution of the polymers. […] The plate was placed into a vacuum oven at 30 ± 2°C for 20 ± 4 h. All dried films were removed from the plates and stored at room temperature in PET/Aluminum foil pouches (Amcor Flexibles Healthcare Inc, Mundelein, IL) until further analysis. […] For analytical purposes, films were dissolved in 1 mL of Milli Q water before addition to HVF.\nThe HVF from the Instead Softcup® was removed by centrifugation of the conical tube for 10 min at 5,000 rpm. […] HVF was then removed from the cup and the pH of each HVF sample was measured with Fisher Alkacid pH filter strips (Fisher Scientific). All samples collected on a specific day were pooled to be used for the research studies. If the pH of the individual samples was higher than 5, the sample was not included in the pool but it was stored at -80°C for separate analysis. If the sample contained blood, it was immediately discarded. Samples were prepared as described in Table 1. […] Because of its high viscosity, HVF was measured by weight and not by volume. […] At each time point, the samples were centrifuged at 10,000 rpm for 10 min to separate the supernatant from the epithelial cells as described in the cell processing section. Both parts (supernatant and cells) were stored at -80 ± C until analyzed by LC-MS/MS. To evaluate the influence of freezing the fluid prior to the analysis, the last pool of HVF was divided into two samples: one used fresh (at the time of collection), and the other one stored at -80°C for a 3-month period. […] HVF samples collected with a high pH value indicative of BV were stored at -80°C as previously mentioned. After confirmation of BV on those fluid samples by Gram stain score, the fluid samples (HVF BV^+) were thawed, pooled, and processed as described in Table 1.\nAt each time point, the sample was removed from the incubation chamber and centrifuged for 10 min at 10,000 rpm, at 4 ± C to separate the supernatant from cell pellet. Supernatant (100 μL) was added to microcentrifuge filters Ultracel YM-10 Microcon MWCO 10,000 (Millipore Corporation, Bedford, MA), which were pre-washed with Milli Q water to eliminate any trace of propylene glycol from the filters. Samples were centrifuged twice for 15 min at 8,500 rpm, at 4 ± C. The filtrate was collected and frozen at -80 ± C until further analysis. A solution of 3 M urea was added to the cell pellet (1:1 w/w) obtained from the first centrifugation, to lyse the cells. This mixture was vortexed three times for 30 sec, and then centrifuged for 10 min at 10,000 rpm, at 4 ± C. The supernatant obtained from the cell lysate was then added to microcentrifuge filters Ultracel YM-10 Microcon MWCO 10,000 pre-washed with Milli Q water. Samples were centrifuged twice for 15 min at 8,500 rpm, at 4 ± C. The filtrate was collected and frozen at -80 ± C until analysis."}, "[2]": {"experiment": "Stability of RC-101 in 3 M urea", "type": "physicochemical", "method": "At each time point, the sample was removed from the incubation chamber and centrifuged for 10 min at 10,000 rpm, at 4 ± C to separate the supernatant from cell pellet. Supernatant (100 μL) was added to microcentrifuge filters Ultracel YM-10 Microcon MWCO 10,000 (Millipore Corporation, Bedford, MA), which were pre-washed with Milli Q water to eliminate any trace of propylene glycol from the filters. Samples were centrifuged twice for 15 min at 8,500 rpm, at 4 ± C. The filtrate was collected and frozen at -80 ± C until further analysis. A solution of 3 M urea was added to the cell pellet (1:1 w/w) obtained from the first centrifugation, to lyse the cells. This mixture was vortexed three times for 30 sec, and then centrifuged for 10 min at 10,000 rpm, at 4 ± C. The supernatant obtained from the cell lysate was then added to microcentrifuge filters Ultracel YM-10 Microcon MWCO 10,000 pre-washed with Milli Q water. Samples were centrifuged twice for 15 min at 8,500 rpm, at 4 ± C. The filtrate was collected and frozen at -80 ± C until analysis. […] Samples were thawed and added to PepCleanTM C-18 spin columns (Pierce Biotechnology Inc., Rockford, IL) for desalting, after column conditioning with acetonitrile:water (50:50) and equilibration with 0.1% trifluoroacetic acid. […]"}, "[3]": {"experiment": "Effect of pH on stability of RC-101, HPLC", "type": "physicochemical", "conditions": "500 μg/mL, HPLC-UV", "method": "(§1) For all pre-formulation studies described below, triplicate solutions of RC-101 (500 μg/mL) were prepared in either water or aqueous buffer solution. Thermal degradation studies were conducted at 25, 37, and 65°C for a minimum period of 1 week. The effect of pH on the stability of RC-101 was evaluated over the pH range from 3 to 12 using 10 mM phosphate buffer solutions, at low (50 mmol/kg) and high (500 mmol/kg) ionic strength. Oxidation of RC-101 was evaluated by exposing a solution of RC-101 to hydrogen peroxide (H2O2) at concentrations of 3.0, 0.08, and 0.002% (v/v). The high H2O2 concentration (3.0%) was selected as a forced degradation concentration. […] Protection against oxidation was investigated by the addition of antioxidants commonly used in pharmaceutical products. The antioxidants used in this study were: methionine (95.2 μg/mL or 250 μg/mL), cysteine (95.2 μg/mL), glutathione (90.9 μg/mL), vitamin E TPGS (90.9 μg/mL), ascorbic acid (1.0 mg/mL), sodium ascorbate (1.0 mg/mL), and EDTA (1.0 μg/mL).\nRC-101 concentration after exposure to preformulation conditions was analyzed by HPLC as previously described [11]. Briefly, the HPLC system (Waters Corporation, Milford, MA) was equipped with an autoinjector model 717, a quaternary pump model 600, and an ultraviolet (UV) detector model 2487 set up at 215 nm. Separation of RC-101 from degradant products was achieved using a Phenomenex Jupiter 5 μC5 300 Å (4.6 × 250 mm) column (Phenomenex, Torrance, CA) protected by a Widepore C5 (4 × 3.0 mm) guard cartridge (Phenomenex). The gradient consisted of mobile phase A (0.1% TFA in water (v/v)), and mobile phase B (0.07% TFA in acetonitrile (v/v)) pumped at a flow rate of 1.0 mL/min. Forced degraded samples (oxidation, temperature, and basic and acidic hydrolysis) were used to establish that the method could separate the degradants from the main peak.\nHPLC data obtained from the preformulation studies were expressed as the average percentage of the peak area from time 0 ± standard deviation, n = 3. Results were analyzed by one-way analysis of variance (ANOVA) with multiple comparisons of individual time points by using post hoc Bonferroni correction to detect significant differences under different conditions. P-values ≤ 0.05 were considered to be statistically significant, unless specified otherwise."}, "[4]": {"experiment": "Oxidation of RC-101 by hydrogen peroxide, HPLC", "conditions": "500 μg/mL", "method": "as §1\n(§2) RC-101 concentration after exposure to preformulation conditions was analyzed by HPLC as previously described [11]. Briefly, the HPLC system (Waters Corporation, Milford, MA) was equipped with an autoinjector model 717, a quaternary pump model 600, and an ultraviolet (UV) detector model 2487 set up at 215 nm. Separation of RC-101 from degradant products was achieved using a Phenomenex Jupiter 5 μC5 300 Å (4.6 × 250 mm) column (Phenomenex, Torrance, CA) protected by a Widepore C5 (4 × 3.0 mm) guard cartridge (Phenomenex). The gradient consisted of mobile phase A (0.1% TFA in water (v/v)), and mobile phase B (0.07% TFA in acetonitrile (v/v)) pumped at a flow rate of 1.0 mL/min. […]\n(§3) HPLC data obtained from the preformulation studies were expressed as the average percentage of the peak area from time 0 ± standard deviation, n = 3. Results were analyzed by one-way analysis of variance (ANOVA) with multiple comparisons of individual time points by using post hoc Bonferroni correction to detect significant differences under different conditions. […]"}, "[5]": {"experiment": "Thermal degradation of RC-101 solution, HPLC", "type": "physicochemical", "conditions": "500 μg/mL solution, HPLC-UV 215 nm", "method": "as §1, §2, §3"}, "[6]": {"experiment": "Circular dichroism of RC-101 at different pH", "type": "physicochemical", "conditions": "500 μg/mL in buffer, pH 7 and pH 12 versus pH 3, 0.1 cm cell", "description": "Changes in the secondary structure of the protein were monitored by Circular dichroism (CD) on an AVIV Circular Dichroism spectrophotometer model 202 (AVIV Biomedical, Lakewood, NJ) equipped with a 0.1 cm path length quartz cell. RC-101 stability was also monitored by using a matrix-assisted laser desorption ionization-time of flight (MALDI-TOF) mass spectrometric (MS) on a Voyager DE-PRO mass spectrometer (Applied Biosystems, Foster City, CA). Potential for aggregation was evaluated by UV-spectroscopy using a NanoDrop ND-1000 spectrophotometer (NanoDrop Technologies Inc, Wilmington, DE)."}, "[7]": {"system": "X4 and R5 strains of HIV-1", "conditions": "cited from earlier work", "source_text": "Defensins are cysteine-rich, cationic antimicrobial peptides expressed by the leucocytes and epithelial cells of mammals. […] Retrocyclins (θ-Defensin) are the evolutionary descendants of α-defensin genes. Retrocyclins are circular 18-residue, tetracyclic peptides with three cysteine disulfide bonds. RC-101 ([…]), a cationic retrocyclin analog synthesized by solid phase peptide synthesis, has shown activity against X4 and R5 strains of HIV-1 in vitro [4]. The mechanism occur ..."}}}
{"sequence": "GICRCICGKGICRCICGR (bicyclic or more) [RC-101, cationic retrocyclin analog; circular 18-residue tetracyclic peptide with three cysteine disulfide bonds]", "values": [{"measurement": "time RC-101 detected in HVF", "setting": "[1]; another (one) pool of normal HVF, 37°C", "result": "up to 72 h"}, {"measurement": "detection of RC-101 by LC-MS/MS", "setting": "[1]; fresh pooled normal HVF 100 mg + 100 μL (100 μg/mL), 1:1, 37°C, 0 h", "result": "+"}, {"measurement": "detection of RC-101 by LC-MS/MS", "setting": "[1]; fresh pooled normal HVF 1:1, 37°C, 2 h", "result": "+"}, {"measurement": "detection of RC-101 by LC-MS/MS", "setting": "[1]; fresh pooled normal HVF 1:1, 37°C, 6 h", "result": "+"}, {"measurement": "detection of RC-101 by LC-MS/MS", "setting": "[1]; fresh pooled normal HVF 1:1, 37°C, 12 h", "result": "+"}, {"measurement": "detection of RC-101 by LC-MS/MS", "setting": "[1]; fresh pooled normal HVF 1:1, 37°C, 24 h", "result": "+"}, {"measurement": "detection of RC-101 by LC-MS/MS", "setting": "[1]; fresh pooled normal HVF 1:1, 37°C, 48 h", "result": "+"}, {"measurement": "detection of RC-101 by LC-MS/MS", "setting": "[1]; fresh pooled normal HVF 1:1, 37°C, 72 h, only one pool analyzed", "result": "+"}, {"measurement": "time RC-101 detected after exposure to HVF", "setting": "[1]; normal HVF, fresh, undiluted, pooled, 1:1 with RC-101 100 μg/mL, 37°C, LC-MS/MS (SRM), not quantitative, overall of 3 pools", "result": "at least 48 h"}, {"measurement": "time RC-101 detected in HVF", "setting": "[1]; two pools of normal HVF, 37°C", "result": 48, "unit": "h"}, {"measurement": "time stable in 3 M urea", "setting": "[2]", "result": "at least 24 h"}, {"measurement": "change in RC-101 concentration over time (HPLC)", "setting": "[3]; pH 3, 10 mM phosphate buffer, 10 days, n = 3, p > 0.83", "result": "no statistically significant decrease"}, {"measurement": "change in RC-101 concentration over time (HPLC)", "setting": "[3]; pH 4, 10 mM phosphate buffer, 10 days, n = 3, p > 0.83", "result": "no statistically significant decrease"}, {"measurement": "change in RC-101 concentration over time (HPLC)", "setting": "[3]; pH 7, 10 mM phosphate buffer, 10 days, n = 3, p > 0.83", "result": "no statistically significant decrease"}, {"measurement": "change in RC-101 concentration over time (HPLC)", "setting": "[3]; pH 12, 10 mM phosphate buffer, first 2 h, n = 3", "result": "significant decrease"}, {"measurement": "degradation rate compared with 3.0% H2O2", "setting": "[4]; 0.002% and 0.08% H2O2 (biologically relevant), HPLC", "result": "slower"}, {"measurement": "loss of RC-101", "setting": "[4]; 3.0% H2O2 (forced degradation), 4 h, HPLC-UV, n = 3", "result": 20, "unit": "%"}, {"measurement": "change in amount of RC-101 on storage (HPLC)", "setting": "[5]; 25 °C, 13 days, % peak area of time 0, n = 3, p > 0.5", "result": "no statistically significance difference"}, {"measurement": "change in amount of RC-101 on storage (HPLC)", "setting": "[5]; 37 °C, 13 days, % peak area of time 0, n = 3, p > 0.5", "result": "no statistically significance difference"}, {"measurement": "change in amount of RC-101 on storage (HPLC)", "setting": "[5]; 65 °C, 168 h, compared with 25 °C, n = 3, p < 0.04", "result": "significant decrease"}, {"measurement": "CD spectrum: peak shift and loss of absorbance compared to pH 3", "setting": "[6]", "result": "change in folding"}, {"measurement": "activity against X4 and R5 strains of HIV-1 in vitro", "setting": "[7]", "result": "activity"}]}
